The source of these data is ChEMBL document CHEMBL1201862, “PubChem BioAssay data set” (2004).

Test systems include LOX IMVI; CCRF-CEM; OVCAR-4; A498; SF-295; NCI-H23; HCT-15; Malme-3M; SK-MEL-28; NCI-H460; SNB-78; KM12; EKVX; SF-268; SK-MEL-5; UO-31; HCT-116; 786-0; SR; RPMI-8226.
Holding throughout (test): NCI-60 cell line screen, 48 h

Molecules are shown by their SMILES.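 Growth conditions: 96-well plates. Treatment: test compound, 48 hours, 5 concentrations. Analysis: linear interpolation between bracketing concentrations; unreached endpoints set to highest concentration. GI50 is the concentration that inhibits growth by half.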 Active and inactive are the calls of the source. Rule as the data show it: active = GI50 up to about 1.1 µM and inactive = higher.

On to `CN1C(=O)C2C(C1=O)C1(O)c3ccccc3C2(N)c2ccccc21` (stereo not given), for which the GI50 was > 100 µM (inactive) in the assay on LOX IMVI; > 100 µM (inactive) in the assay with CCRF-CEM; > 100 µM (inactive) in the assay on OVCAR-4; 35.2 µM (inactive) in the assay on A498; > 100 µM (inactive) with SF-295; > 100 µM (inactive) in the assay on NCI-H23. Moreover, the GI50 is more than 100 µM with HCT-15; > 100 µM (inactive) in the assay on Malme-3M; > 100 µM (inactive) in the assay on SK-MEL-28; > 100 µM (inactive) with NCI-H460; > 100 µM (inactive) with SNB-78; > 100 µM (inactive) in the assay on KM12. Besides, the GI50 with EKVX, in the assay with SF-268, in the assay with SK-MEL-5, with UO-31, in the assay with HCT-116 and in the assay with 786-0 was > 100 µM (inactive) in each case.

Turning to `O=C1c2cc3c(cc2[C@@H]2NC4CCCC14O2)OCO3` (stereo not given in full), the GI50 in the assay with CCRF-CEM, with OVCAR-4, in the assay with A498, in the assay on SF-295, with SR and in the assay with NCI-H23 was > 100 µM (inactive) in each case. For the same molecule, the GI50 in the assay with SK-MEL-28, in the assay with NCI-H460, in the assay on SNB-78, in the assay with KM12, with EKVX and in the assay with SF-268 was > 100 µM (inactive) each time. Further, the GI50 with SK-MEL-5, in the assay on UO-31, in the assay on HCT-116 and in the assay with 786-0 was > 100 µM (inactive) each time.

For `CC[C@@H]1NC(C(=O)OC)Cc2c1[nH]c1ccccc21` (stereo not given in full), the GI50 with LOX IMVI, in the assay with CCRF-CEM, with OVCAR-4, in the assay on A498, with SF-295 and with SR was > 100 µM (inactive) in each case. Also, the GI50 in the assay with NCI-H23 was > 100 µM (inactive); with HCT-15 it was more than 100 µM; with Malme-3M, > 100 µM (inactive); with SK-MEL-28, > 100 µM (inactive); in the assay with NCI-H460, 27.9 µM (inactive); in the assay with SNB-78, > 100 µM (inactive). In addition, the GI50 in the assay on KM12, in the assay with EKVX, in the assay with SK-MEL-5, with UO-31, with HCT-116 and in the assay on 786-0 was > 100 µM (inactive) each time.

For `C=C(CO)CC(O)c1ccccc1` (stereo not given), the GI50 with LOX IMVI, in the assay with CCRF-CEM, in the assay with OVCAR-4, with A498, with SF-295 and with RPMI-8226 was > 100 µM (inactive) each time. Also, the GI50 in the assay on NCI-H23 is > 100 µM (inactive); in the assay with HCT-15 it was more than 100 µM; in the assay with SK-MEL-28, > 100 µM (inactive); with NCI-H460, > 100 µM (inactive); in the assay with SNB-78, > 100 µM (inactive); in the assay with KM12 it was > 100 µM (inactive). For the same molecule, the GI50 in the assay with EKVX, in the assay on SF-268, with SK-MEL-5, in the assay on UO-31, in the assay on HCT-116 and in the assay on 786-0 was > 100 µM (inactive) in each case.

For `CN(C(=O)C12C3(C(=O)C(C)(C)C)C4C5(C#N)C3C1(C(=O)C(C)(C)C)C5C42C(=O)C(C)(C)C)C(C)(C)C` (stereo not given), the GI50 was 16.6 µM (inactive) with CCRF-CEM; 31.6 µM (inactive) in the assay on OVCAR-4; > 50 µM (inactive) in the assay on A498; > 50 µM (inactive) with SF-295; 43.8 µM (inactive) with SR; 40.6 µM (inactive) with NCI-H23. In addition, the GI50 in the assay on HCT-15 is more than 50 µM; in the assay on Malme-3M, > 50 µM (inactive); in the assay on SK-MEL-28 it was > 50 µM (inactive); with NCI-H460 it was > 50 µM (inactive); with SNB-78, > 50 µM (inactive); in the assay on KM12 it was > 50 µM (inactive). The GI50 with EKVX was 43.3 µM (inactive); with SF-268 it was 32.5 µM (inactive); with SK-MEL-5, > 50 µM (inactive); with UO-31, 29.6 µM (inactive); with HCT-116, 24.2 µM (inactive); in the assay with 786-0, > 50 µM (inactive).

On to `COC(=O)[C@]12CC=C3O[C@@H]4OC5(CCCCC5)O[C@@H]4C3[C@@H]1C(=O)CCC2=O` (stereo not given in full), for which the GI50 with LOX IMVI, in the assay on CCRF-CEM, in the assay with OVCAR-4, in the assay with A498, with SF-295 and in the assay with RPMI-8226 was > 100 µM (inactive) throughout. Besides, the GI50 in the assay on NCI-H23 was > 100 µM (inactive); in the assay on HCT-15, more than 100 µM; with Malme-3M it was > 100 µM (inactive); with SK-MEL-28, > 100 µM (inactive); with NCI-H460, > 100 µM (inactive); with SNB-78, > 100 µM (inactive). The GI50 with KM12, with EKVX, in the assay on SF-268, with SK-MEL-5, in the assay with UO-31 and in the assay on HCT-116 was > 100 µM (inactive) in each case. Also, in the assay with 786-0, the GI50 was > 100 µM (inactive).

With `COC(=O)c1ccc(OCc2ccc3nc(OC)c(OC)nc3c2)cc1`, the GI50 with LOX IMVI is > 100 µM (inactive); in the assay on CCRF-CEM it was > 100 µM (inactive); with OVCAR-4 it was > 100 µM (inactive); with SF-295, 82.6 µM (inactive); in the assay with SR, > 100 µM (inactive); with RPMI-8226 it was > 100 µM (inactive). Also, the GI50 in the assay on NCI-H23 is > 100 µM (inactive); in the assay on HCT-15, more than 100 µM; in the assay with Malme-3M it was > 100 µM (inactive); in the assay on SK-MEL-28, > 100 µM (inactive); in the assay with NCI-H460 it was > 100 µM (inactive); in the assay on SNB-78 it was > 100 µM (inactive). For the same molecule, the GI50 in the assay with KM12 was > 100 µM (inactive); with EKVX it was > 100 µM (inactive); with SF-268, > 100 µM (inactive); in the assay with SK-MEL-5, > 100 µM (inactive); with UO-31 it was > 100 µM (inactive); in the assay on HCT-116, 89.9 µM (inactive). The GI50 in the assay on 786-0 is > 100 µM (inactive).

With `CCN(c1ccc(Br)cc1)c1c(Br)c(=O)nc2ccccn12`, the GI50 with CCRF-CEM was > 100 µM (inactive); with A498 it was > 100 µM (inactive); with SR, > 100 µM (inactive); in the assay with RPMI-8226 it was 74.5 µM (inactive); with NCI-H23 it was > 100 µM (inactive); in the assay with HCT-15 it was 99.1 µM. Also, the GI50 in the assay on Malme-3M is 64.9 µM (inactive); in the assay with SK-MEL-28 it was > 100 µM (inactive); with NCI-H460, > 100 µM (inactive); in the assay on SNB-78, > 100 µM (inactive); with KM12 it was > 100 µM (inactive); with EKVX, 73.3 µM (inactive). The GI50 in the assay with SF-268 is > 100 µM (inactive); in the assay with SK-MEL-5, 59.8 µM (inactive); in the assay on UO-31, 35.7 µM (inactive); in the assay on HCT-116, > 100 µM (inactive); in the assay on 786-0, > 100 µM (inactive).

Take `COC1(OC)CC(CO)(CNc2nc(N)nc(Cl)c2C=O)C1`: the GI50 in the assay with LOX IMVI is 18.5 µM (inactive); in the assay with CCRF-CEM, 27.8 µM (inactive); with OVCAR-4, 25.2 µM (inactive); with A498 it was > 100 µM (inactive); with SF-295, > 100 µM (inactive); in the assay on SR it was 20.1 µM (inactive). The GI50 with RPMI-8226 was > 100 µM (inactive); in the assay with NCI-H23, 17.6 µM (inactive); in the assay on HCT-15, 26 µM; in the assay on Malme-3M, 81.7 µM (inactive); in the assay with SK-MEL-28 it was 50 µM (inactive); in the assay on NCI-H460, 85.7 µM (inactive). Further, the GI50 in the assay on KM12 is 49 µM (inactive); with EKVX it was 22.8 µM (inactive); in the assay with SF-268, 44.2 µM (inactive); in the assay with SK-MEL-5 it was > 100 µM (inactive); with UO-31, 60.1 µM (inactive); in the assay with HCT-116, 39.3 µM (inactive). Also, the GI50 in the assay with 786-0 was > 100 µM (inactive).

As for `O=C(c1cc2c(C(F)(F)F)onc2c2ccccc12)C(F)(F)F`, the GI50 is 1.63 µM (inactive) in the assay with LOX IMVI; 0.34 µM (active) with CCRF-CEM; 3.65 µM (inactive) in the assay on OVCAR-4; 12.7 µM (inactive) with A498; 2.58 µM (inactive) in the assay on SF-295; 1.41 µM (inactive) in the assay on SR. The GI50 in the assay with RPMI-8226 is 0.935 µM (active); in the assay with NCI-H23 it was 0.929 µM (active); with HCT-15 it was 0.741 µM; with SK-MEL-28 it was 3.44 µM (inactive); in the assay with NCI-H460, 1.24 µM (inactive); in the assay with SNB-78, 0.236 µM (active). For the same molecule, the GI50 was 0.746 µM (active) in the assay with KM12; 7.38 µM (inactive) in the assay on EKVX; 2.75 µM (inactive) with SF-268; 4.16 µM (inactive) in the assay on SK-MEL-5; 1.7 µM (inactive) with UO-31; 0.0452 µM (active) with HCT-116. In the assay with 786-0, the GI50 was 1.93 µM (inactive).

In the case of `c1ccc2c[n+](CCCCCCCCCC[n+]3ccc4ccccc4c3)ccc2c1`, the GI50 in the assay with LOX IMVI was > 10 µM (inactive); with CCRF-CEM, > 10 µM (inactive); in the assay on OVCAR-4, > 10 µM (inactive); in the assay with A498, > 10 µM (inactive); in the assay with SF-295, 3.59 µM (inactive); with SR, > 10 µM (inactive). The GI50 in the assay with RPMI-8226 was > 10 µM (inactive); in the assay with NCI-H23, 1 µM (active); in the assay on HCT-15, more than 10 µM; in the assay on Malme-3M, > 10 µM (inactive); in the assay on SK-MEL-28, 7.43 µM (inactive); in the assay on NCI-H460, > 10 µM (inactive). The GI50 in the assay on KM12 is > 5.68 µM (inactive); in the assay with EKVX, 2.07 µM (inactive); in the assay with SF-268, > 10 µM (inactive); with SK-MEL-5, 2.66 µM (inactive); in the assay on UO-31 it was > 10 µM (inactive); in the assay on HCT-116, > 10 µM (inactive). Besides, the GI50 in the assay with 786-0 was > 10 µM (inactive).
